In PubChem BioAssay AID248 (DTP/NCI, 2004):
Values joined by “and” are separate entries in the source; they are usually repeats but may differ in a detail not shown here. Equal entries are not always repeated. Inconclusive results and toxic doses are left out. Cut-off read from the data, not from the text of the source: active = T/C of 150% or more; inactive = T/C below 125%.

Test system: L1210 leukemia ip in BDF1 mice, survival T/C
Assay: NCI In Vivo Anticancer Drug Screen. Data for tumor model L1210 Leukemia (intraperitoneal) in B6D2F1 (BDF1) mice
Details: higher = longer survival
Method in brief: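 Transplantable tumor model; survival measured in treated vs vehicle control mice. Value = treated/control.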

[1] = endpoint: mean survival time, dose: 100.0 mg/kg/injection, schedule: Q01DX009 (ip), vehicle: Klucel (hydroxypropylcellulose) (HPC)
[2] = endpoint: mean survival time, dose: 200.0 mg/kg/injection, schedule: Q01DX009 (ip), vehicle: Klucel (hydroxypropylcellulose) (HPC)
[3] = endpoint: mean survival time, dose: 400.0 mg/kg/injection, schedule: Q01DX009 (ip), vehicle: Klucel (hydroxypropylcellulose) (HPC)
[4] = endpoint: mean survival time, dose: 100.0 mg/kg/injection, schedule: Q01DX001 (ip), vehicle: saline
[5] = endpoint: mean survival time, dose: 200.0 mg/kg/injection, schedule: Q01DX001 (ip), vehicle: saline
[6] = endpoint: mean survival time, dose: 100.0 mg/kg/injection, schedule: Q04DX003 (ip), vehicle: Klucel (hydroxypropylcellulose) (HPC)
[7] = endpoint: mean survival time, dose: 200.0 mg/kg/injection, schedule: Q04DX003 (ip), vehicle: Klucel (hydroxypropylcellulose) (HPC)
[8] = endpoint: mean survival time, dose: 400.0 mg/kg/injection, schedule: Q04DX003 (ip), vehicle: Klucel (hydroxypropylcellulose) (HPC)
[9] = endpoint: mean survival time, dose: 100.0 mg/kg/injection, schedule: Q04DX003 (ip), vehicle: saline with Tween-80
[10] = endpoint: mean survival time, dose: 200.0 mg/kg/injection, schedule: Q04DX003 (ip), vehicle: saline with Tween-80
[11] = endpoint: mean survival time, dose: 400.0 mg/kg/injection, schedule: Q04DX003 (ip), vehicle: saline with Tween-80
[12] = endpoint: mean survival time, dose: 50.0 mg/kg/injection, schedule: Q01DX009 (ip), vehicle: saline
[13] = endpoint: mean survival time, dose: 100.0 mg/kg/injection, schedule: Q01DX009 (ip), vehicle: saline
[14] = endpoint: mean survival time, dose: 200.0 mg/kg/injection, schedule: Q01DX009 (ip), vehicle: saline

Measured: T/C

CC(C)CCCC(C)C1CCC2C3CCC4CC(O)CCC4(C)C3CCC12C (stereo not drawn)
inactive: endpoint: mean survival time, dose: 100.0 mg/kg/injection, schedule: Q01DX001 (sc), vehicle: steriod suspending solution 109 % of control | endpoint: mean survival time, dose: 200.0 mg/kg/injection, schedule: Q01DX001 (sc), vehicle: steriod suspending solution 109 % of control | endpoint: mean survival time, dose: 400.0 mg/kg/injection, schedule: Q01DX001 (sc), vehicle: steriod suspending solution 100 % of control

Cc1c([N+](=O)[O-])cc(C(C)(C)C)c(OC(=O)c2ccccc2)c1[N+](=O)[O-]
inactive: endpoint: mean survival time, dose: 100.0 mg/kg/injection, schedule: Q04DX002 (ip), vehicle: saline with Tween-80 123 % of control | endpoint: mean survival time, dose: 200.0 mg/kg/injection, schedule: Q04DX002 (ip), vehicle: saline with Tween-80 116 % of control

O=C(Nc1ccc(F)cc1)Nc1ccccc1C(F)(F)F
inactive: [1] 95 % of control | [2] 97 % of control | [3] 88 % of control

CCCCCNC(=S)Nc1ccccc1
inactive: endpoint: mean survival time, dose: 38.0 mg/kg/injection, schedule: Q04DX003 (ip), vehicle: other 98 % of control | endpoint: mean survival time, dose: 75.0 mg/kg/injection, schedule: Q01DX001 (ip), vehicle: other 98 % of control | endpoint: mean survival time, dose: 75.0 mg/kg/injection, schedule: Q04DX003 (ip), vehicle: other 102 % of control | endpoint: mean survival time, dose: 150.0 mg/kg/injection, schedule: Q01DX001 (ip), vehicle: other 112 % of control | endpoint: mean survival time, dose: 150.0 mg/kg/injection, schedule: Q04DX003 (ip), vehicle: other 96 % of control | endpoint: mean survival time, dose: 300.0 mg/kg/injection, schedule: Q01DX001 (ip), vehicle: other 110 % of control

CC(C)OC(=O)C1(N)CCCC1
inactive: endpoint: mean survival time, dose: 25.0 mg/kg/injection, schedule: Q01DX Z (ip), vehicle: carboxymethylcellulose (CMC) 105 % of control | endpoint: mean survival time, dose: 30.0 mg/kg/injection, schedule: Q01DX Z (ip), vehicle: saline 113 % of control | endpoint: mean survival time, dose: 40.0 mg/kg/injection, schedule: Q01DX Z (ip), vehicle: other 119 % of control | endpoint: mean survival time, dose: 45.0 mg/kg/injection, schedule: Q01DX Z (ip), vehicle: saline 118 % of control | endpoint: mean survival time, dose: 50.0 mg/kg/injection, schedule: Q01DX Z (ip), vehicle: carboxymethylcellulose (CMC) 122 % of control | endpoint: mean survival time, dose: 150.0 mg/kg/injection, schedule: Q01DX Z (ip), vehicle: saline 89 % of control | endpoint: mean survival time, dose: 200.0 mg/kg/injection, schedule: Q01DX Z (ip), vehicle: carboxymethylcellulose (CMC) 88 % of control

CC(C)(CO)N=Cc1cc([N+](=O)[O-])ccc1O
inactive: [4] 110 % of control | [5] 107 % of control | endpoint: mean survival time, dose: 400.0 mg/kg/injection, schedule: Q01DX001 (ip), vehicle: saline 110 % of control

CCN(CCOC(=O)Nc1cccc(C(C)=O)c1)c1ccccc1
inactive: [1] 108 % of control | [2] 104 % of control | [3] 106 % of control

COc1ccccc1NC(=O)Nc1ccc(Nc2ccccc2)cc1
inactive: [1] 101 % of control | [6] 103 % of control | [2] 104 % of control | [7] 91 % of control | [3] 104 % of control | [8] 97 % of control

CC1C(c2ccccc2)OCCN1C (stereo not drawn)
inactive: endpoint: mean survival time, dose: 50.0 mg/kg/injection, schedule: Q04DX003 (ip), vehicle: saline 108 % of control | [4] 93 % of control | endpoint: mean survival time, dose: 100.0 mg/kg/injection, schedule: Q04DX003 (ip), vehicle: saline 108 % of control | [5] 104 % of control | endpoint: mean survival time, dose: 200.0 mg/kg/injection, schedule: Q04DX003 (ip), vehicle: saline 104 % of control

CCCCCCCCCCCCSc1ccc2ccccc2c1
inactive: endpoint: mean survival time, dose: 100.0 mg/kg/injection, schedule: Q01DX001 (ip), vehicle: Klucel (hydroxypropylcellulose) (HPC) 87 % of control | endpoint: mean survival time, dose: 200.0 mg/kg/injection, schedule: Q01DX001 (ip), vehicle: Klucel (hydroxypropylcellulose) (HPC) 92 % of control

CCOC(=O)c1ccc(N=Cc2cnc(N)nc2N)cc1
inactive: endpoint: mean survival time, dose: 100.0 mg/kg/injection, schedule: Q01DX001 (ip), vehicle: other 93 % of control | endpoint: mean survival time, dose: 200.0 mg/kg/injection, schedule: Q01DX001 (ip), vehicle: other 87 % of control | endpoint: mean survival time, dose: 400.0 mg/kg/injection, schedule: Q01DX001 (ip), vehicle: other 93 % of control

NNC(=O)CNc1cccc(F)c1
inactive: endpoint: mean survival time, dose: 100.0 mg/kg/injection, schedule: Q04DX002 (ip), vehicle: Klucel (hydroxypropylcellulose) (HPC) 105 % of control | endpoint: mean survival time, dose: 200.0 mg/kg/injection, schedule: Q04DX002 (ip), vehicle: Klucel (hydroxypropylcellulose) (HPC) 119 % of control

CCC(C)NC(=O)C1C2CC3OC(=O)C1C3C2 (stereo not drawn)
inactive: [9] 106 % of control and 98 % of control | [10] 101 % of control and 98 % of control | [11] 95 % of control and 98 % of control

COc1cc(CC(C)N)cc(OC)c1OC (stereo not drawn)
inactive: [12] 110 % of control | [13] 108 % of control | [14] 103 % of control

N#CCC[P+](CCC#N)(CCC#N)CCCC[P+](CCC#N)(CCC#N)CCC#N
inactive: [9] 94 % of control | [10] 91 % of control | [11] 94 % of control

O/N=C/c1c(I)cc(I)c(O)c1I
inactive: [1] 101 % of control | [2] 106 % of control | [3] 90 % of control

NC(N)=NCCCC(NC(=O)OCc1ccccc1)C(=O)O (stereo not drawn)
inactive: [1] 106 % of control and 94 % of control | [6] 94 % of control and 97 % of control | [2] 109 % of control and 91 % of control | [7] 86 % of control and 99 % of control | [3] 97 % of control and 87 % of control | [8] 92 % of control

CCSCCC(N)C(=O)O (stereo not drawn)
inactive: endpoint: mean survival time, dose: 10.25 mg/kg/injection, schedule: Q01DX Z (ip), vehicle: carboxymethylcellulose (CMC) 97 % of control | endpoint: mean survival time, dose: 18.75 mg/kg/injection, schedule: Q01DX Z (ip), vehicle: carboxymethylcellulose (CMC) 91 % of control | endpoint: mean survival time, dose: 20.5 mg/kg/injection, schedule: Q01DX Z (ip), vehicle: carboxymethylcellulose (CMC) 113 % of control | endpoint: mean survival time, dose: 37.5 mg/kg/injection, schedule: Q01DX Z (ip), vehicle: carboxymethylcellulose (CMC) 93 % of control | endpoint: mean survival time, dose: 41.0 mg/kg/injection, schedule: Q01DX Z (ip), vehicle: carboxymethylcellulose (CMC) 103 % of control | endpoint: mean survival time, dose: 75.0 mg/kg/injection, schedule: Q01DX Z (ip), vehicle: carboxymethylcellulose (CMC) 96 % of control | endpoint: mean survival time, dose: 82.0 mg/kg/injection, schedule: Q01DX Z (ip), vehicle: carboxymethylcellulose (CMC) 103 % of control | endpoint: mean survival time, dose: 100.0 mg/kg/injection, schedule: Q01DX001 (ip), vehicle: carboxymethylcellulose (CMC) 102 % of control | endpoint: mean survival time, dose: 150.0 mg/kg/injection, schedule: Q01DX Z (ip), vehicle: carboxymethylcellulose (CMC) 100 % of control | endpoint: mean survival time, dose: 200.0 mg/kg/injection, schedule: Q01DX001 (ip), vehicle: carboxymethylcellulose (CMC) 107 % of control | endpoint: mean survival time, dose: 400.0 mg/kg/injection, schedule: Q01DX001 (ip), vehicle: carboxymethylcellulose (CMC) 95 % of control

Cc1ccc2c(c1)P(=O)(O)c1cc(Cl)ccc1O2
inactive: [12] 98 % of control | [13] 100 % of control | [14] 102 % of control | endpoint: mean survival time, dose: 400.0 mg/kg/injection, schedule: Q01DX009 (ip), vehicle: saline 98 % of control | endpoint: median survival time, dose: 64.8 mg/kg/injection, schedule: Q01DX009 (ip), vehicle: water 109 % of control | endpoint: median survival time, dose: 108.0 mg/kg/injection, schedule: Q01DX009 (ip), vehicle: water 107 % of control | endpoint: median survival time, dose: 130.0 mg/kg/injection, schedule: Q04DX003 (ip), vehicle: water 103 % of control | endpoint: median survival time, dose: 180.0 mg/kg/injection, schedule: Q01DX009 (ip), vehicle: water 109 % of control | endpoint: median survival time, dose: 216.0 mg/kg/injection, schedule: Q04DX003 (ip), vehicle: water 102 % of control | endpoint: median survival time, dose: 300.0 mg/kg/injection, schedule: Q01DX009 (ip), vehicle: water 112 % of control | endpoint: median survival time, dose: 360.0 mg/kg/injection, schedule: Q04DX003 (ip), vehicle: water 103 % of control

COC(=O)c1cc(OC)cc(OC)c1
inactive: endpoint: mean survival time, dose: 100.0 mg/kg/injection, schedule: Q04DX003 (ip), vehicle: other 88 % of control | endpoint: mean survival time, dose: 200.0 mg/kg/injection, schedule: Q04DX003 (ip), vehicle: other 92 % of control | endpoint: mean survival time, dose: 400.0 mg/kg/injection, schedule: Q04DX003 (ip), vehicle: other 97 % of control
